# Laboratory results as given in US6958340B2, “Tyrosine kinase inhibitors” (Merck & Co., Inc., priority 2001, dated 2005).
compound,measurement,value
"Cc1cc(C)cc(Nc2nccc(-n3ccnc3-c3ccccc3)n2)c1 [Compound 1-24, N-(3,5-dimethylphenyl)-4-(2-phenyl-1H-imidazol-1-yl)pyrimidin-2-amine]",melting point,183 °C
